Data on 19 molecules can be found in patent publication US11377441B2, “Covalent inhibitors of KRAS” (Araxes Pharma LLC, priority 2017, dated 2022).

The target of the assay is T1, KRAS G12C 1-169, his-tagged protein, GDP-loaded (Homo sapiens, UniProt P01116, G12C).
T1 construct: KRAS G12C 1-169, his-tagged protein, GDP-loaded
As to the kind of experiment: Biochemical assay: covalent modification of KRAS G12C measured by mass spectrometry (RapidFire/TOF or Q-Exactive). Format: binding. As to conditions: covalent binding to (modification of) KRAS G12C after a ten minute incubation period. In outline:
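Intact-mass readout (TOF or Q-Exactive, charge-envelope deconvolution) gives percent covalent adduct from modified and unmodified species. Compound at 10, 30 or 100 μM was incubated at room temperature for 10 min to 24 h with 2 μM or 0.5 μM GDP-bound KRAS G12C 1-169 in Hepes/NaCl/MgCl2 buffer, then acid-quenched.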
For `C=CC(=O)N1CCN(c2nc(N3CC(N(C)C)C3)nc3c(F)c(-c4c(C)ccc5cn[nH]c45)c(Cl)cc23)CC1CC#N` (stereo not shown) [Compound 266, 2-(1-acryloyl-4-(6-chloro-2-(3-(dimethylamino)azetidin-1-yl)-8-fluoro-7-(6-methyl-1H-indazol-7-yl)quinazolin-4-yl)piperazin-2-yl)acetonitrile], the Binding % result is “++ (++ indicates binding activity from 50 to 80%)”. Take `C=CC(=O)N1C[C@H](C)N(c2nc(OCCN3CCC(F)(F)CC3)nc3c(F)c(-c4c(C)ccc5[nH]nc(N)c45)c(Cl)cc23)C[C@H]1C` [Compound 118, 1-((2R,5S)-4-(7-(3-amino-5-methyl-1H-indazol-4-yl)-6-chloro-2-(2-(4,4-difluoropiperidin-1-yl)ethoxy)-8-fluoroquinazolin-4-yl)-2,5-dimethylpiperazin-1-yl)prop-2-en-1-one]: the Binding % entry was “+++ (+++ indicates binding activity greater than 80%)”.

Regarding `C=CC(=O)N1C[C@H](C)N(c2nc(OCCN3CCOCC3)nc3c(F)c(-c4c(C)ccc5[nH]nc(N)c45)c(Cl)cc23)C[C@H]1C` (atropisomer, axis not shown) [Compound 58, 1-((2R,5S)-4-((S)-7-(3-amino-5-methyl-1H-indazol-4-yl)-6-chloro-8-fluoro-2-(2-morpholinoethoxy)quina-zolin-4-yl)-2,5-dimethylpiperazin-1-yl)prop-2-en-1-one], the Binding % result is “+ (+ indicates binding activity greater than 0% and up to 50%)”. With `C=CC(=O)N1C[C@H](C)N(c2nc(N3CC(C(N)=O)C3)nc3c(F)c(-c4c(C)ccc5[nH]nc(C6CC6)c45)c(Cl)cc23)C[C@H]1C` [Compound 257, 1-(4-((2S,5R)-4-acryloyl-2,5-dimethylpiperazin-1-yl)-6-chloro-7-(3-cyclopropyl-5-methyl-1H-indazol-4-yl)-8-fluoroquinazolin-2-yl)azetidine-3-carboxamide], the Binding % entry is reported as “++ (++ indicates binding activity from 50 to 80%)”.

In the case of `C=CC(=O)N1CCN(c2nc(OC[C@@H]3CCCN3C)nc3c(F)c(-c4c(C)ccc5[nH]ncc45)c(Cl)cc23)CC1CC#N` (stereo partly drawn) [Compound 271, 2-(1-acryloyl-4-(6-chloro-8-fluoro-7-(5-methyl-1H-indazol-4-yl)-2-(((S)-1-methylpyrrolidin-2-yl)methoxy)quinazolin-4-yl)piperazin-2-yl)acetonitrile], the Binding % result was “+++ (+++ indicates binding activity greater than 80%)”. Take `[2H]C([2H])([2H])N(C1CN(c2nc(N3C[C@@H](C)N(C(=O)C=C)C[C@@H]3C)c3cc(Cl)c(-c4c(C)ccc5[nH]nc(C6CC6)c45)c(F)c3n2)C1)C([2H])([2H])[2H]` (atropisomer, axis not shown) [Compound 223, 1-((2R,5S)-4-((S)-6-chloro-7-(3-cyclopropyl-5-methyl-1H-indazol-4-yl)-2-(3-(di-perdeuteromethylamino)azetidin-1-yl)-8-fluoroquinazolin-4-yl)-2,5-dimethylpiperazin-1-yl)prop-2-en-1-one]: the Binding % entry was “+ (+ indicates binding activity greater than 0% and up to 50%)”. `C=CC(=O)N1C[C@H](C)N(c2nc(N3CC(NC)C3)nc3c(F)c(-c4c(C)ccc5[nH]nc(C6CC6)c45)c(Cl)cc23)C[C@H]1C` (atropisomer, axis not shown) [Compound 210, 1-((2R,5S)-4-((S)-6-chloro-7-(3-cyclopropyl-5-methyl-1H-indazol-4-yl)-8-fluoro-2-(3-(methylamino)azetidin-1-yl)quinazolin-4-yl)-2,5-dimethylpiperazin-1-yl)prop-2-en-1-one]: the Binding % entry is “+ (+ indicates binding activity greater than 0% and up to 50%)”. `C=CC(=O)N1C[C@H](C)N(c2nc(OCCN3CCC(F)(F)C3)nc3c(F)c(-c4c(C)ccc5[nH]nc(C6CC6)c45)c(Cl)cc23)C[C@H]1C` (atropisomer, axis not shown) [Compound 117, 1-((2R,5S)-4-((R)-6-chloro-7-(3-cyclopropyl-5-methyl-1H-indazol-4-yl)-2-(2-(3,3-difluoropyrrolidin-1-yl)ethoxy)-8-fluoroquinazolin-4-yl)-2,5-dimethylpiperazin-1-yl)prop-2-en-1-one]: the Binding % entry is “+++ (+++ indicates binding activity greater than 80%)”. In the case of `C=CC(=O)N1C[C@H](C)N(c2nc(N3CC(NC)C3)nc3c(F)c(-c4c(C)ccc5cnn(C)c45)c(Cl)cc23)C[C@H]1C` (atropisomer, axis not shown) [Compound 170, 1-((2R,5S)-4-((R)-6-chloro-7-(1,6-dimethyl-1H-indazol-7-yl)-8-fluoro-2-(3-(methylamino)azetidin-1-yl)quinazolin-4-yl)-2,5-dimethylpiperazin-1-yl)prop-2-en-1-one], the Binding % result is on record as “+++ (+++ indicates binding activity greater than 80%)”. Consider `C=CC(=O)N1C[C@H](C)N(c2nc(OC[C@H]3CN(C)CCO3)nc3c(F)c(-c4c(C)ccc5cnn(C)c45)c(Cl)cc23)C[C@H]1C` [Compound 186, 1-((2R,5S)-4-(6-chloro-7-(1,6-dimethyl-1H-indazol-7-yl)-8-fluoro-2-(((R)-4-methylmorpholin-2-yl)methoxy)quinazolin-4-yl)-2,5-dimethylpiperazin-1-yl)prop-2-en-1-one], for which the Binding % result is reported as “+++ (+++ indicates binding activity greater than 80%)”. On to `C=CC(=O)N1C[C@H](C)N(c2nc(OC[C@H]3COCCN3C)nc3c(F)c(-c4c(C)ccc5cnn(C)c45)c(Cl)cc23)C[C@H]1C` [Compound 178, 1-((2R,5S)-4-(6-chloro-7-(1,6-dimethyl-1H-indazol-7-yl)-8-fluoro-2-(((R)-4-methylmorpholin-3-yl)methoxy)quinazolin-4-yl)-2,5-dimethylpiperazin-1-yl)prop-2-en-1-one], for which the Binding % result is given as “++ (++ indicates binding activity from 50 to 80%)”. In the case of `C=CC(=O)N1C[C@H](C)N(c2nc(N3CC(N(C)C)C3)nc3c(F)c(-c4c(C)ccc5[nH]nc(C)c45)c(C(F)(F)F)cc23)C[C@H]1C` [Compound 192, 1-((2R,5S)-4-(7-(3,5-dimethyl-1H-indazol-4-yl)-2-(3-(dimethylamino)azetidin-1-yl)-8-fluoro-6-(trifluoromethyl)quina-zolin-4-yl)-2,5-dimethylpiperazin-1-yl)prop-2-en-1-one], the Binding % result was “+++ (+++ indicates binding activity greater than 80%)”. As to `C=CC(=O)N1C[C@H](C)N(c2nc(N3CC(N(C)C)C3)nc3c(F)c(-c4c(C)ccc5[nH]nc(C6CC6)c45)c(C(F)(F)F)cc23)C[C@H]1C` [Compound 193, 1-((2R,5S)-4-(7-(3-cyclopropyl-5-methyl-1H-indazol-4-yl)-2-(3-(dimethylamino)azetidin-1-yl)-8-fluoro-6-(trifluoromethyl)quina-zolin-4-yl)-2,5-dimethylpiperazin-1-yl)prop-2-en-1-one], the Binding % result is recorded as “+++ (+++ indicates binding activity greater than 80%)”.

As for `C=CC(=O)N1C[C@H](C)N(c2nc(N3CC(N(C)C)C3)nc3c(F)c(-c4c(C)ccc5[nH]nc(Cl)c45)c(Cl)cc23)C[C@H]1C` [Compound 23, 1-((2R,5S)-4-(6-chloro-7-(3-chloro-5-methyl-1H-indazol-4-yl)-2-(3-(dimethylamino)azetidin-1-yl)-8-fluoroquinazolin-4-yl)-2,5-dimethylpiperazin-1-yl)prop-2-en-1-one], the Binding % entry is given as “+++ (+++ indicates binding activity greater than 80%)”. Take `C=CC(=O)N1C[C@H](C)N(c2nc(N3CC(N(C)C)C3)nc3c(F)c(-c4c(C)ccc5cnn(C)c45)c(Cl)cc23)C[C@@H]1C` (atropisomer, axis not shown) [Compound 249, 1-((2S,5S)-4-((R)-6-chloro-7-(1,6-dimethyl-1H-indazol-7-yl)-2-(3-(dimethylamino)azetidin-1-yl)-8-fluoroquinazolin-4-yl)-2,5-dimethylpiperazin-1-yl)prop-2-en-1-one]: the Binding % entry is “+ (+ indicates binding activity greater than 0% and up to 50%)”. On to `C=CC(=O)N1C[C@H](C)N(c2nc(OCCN(CC)CC)nc3c(F)c(-c4c(C)ccc5[nH]nc(N)c45)c(Cl)cc23)C[C@H]1C` [Compound 78, 1-((2R,5S)-4-(7-(3-amino-5-methyl-1H-indazol-4-yl)-6-chloro-2-(2-(diethylamino)ethoxy)-8-fluoroquinazolin-4-yl)-2,5-dimethylpiperazin-1-yl)prop-2-en-1-one], for which the Binding % entry is on record as “+++ (+++ indicates binding activity greater than 80%)”.

For the molecule `C=CC(=O)N1CCN(c2nc(N3CC(N(C)C)C3)nc3c(F)c(-c4c(C)ccc5[nH]nc(C6CC6)c45)c(Cl)cc23)CC1` (atropisomer, axis not shown) [Compound 103, (S)-1-(4-(6-chloro-7-(3-cyclopropyl-5-methyl-1H-indazol-4-yl)-2-(3-(dimethylamino)azetidin-1-yl)-8-fluoroquinazolin-4-yl)piperazin-1-yl)prop-2-en-1-one], the Binding % entry was “+ (+ indicates binding activity greater than 0% and up to 50%)”. For `C=CC(=O)N1C[C@H](C)N(c2nc(OC[C@@H]3CCCN3C)nc3c(F)c(-c4c(C)ccc5[nH]nc(C)c45)c(Cl)cc23)C[C@H]1C` [Compound 162, 1-((2R,5S)-4-(6-chloro-7-(3,5-dimethyl-1H-indazol-4-yl)-8-fluoro-2-(((S)-1-methylpyrrolidin-2-yl)methoxy)quinazolin-4-yl)-2,5-dimethylpiperazin-1-yl)prop-2-en-1-one] the value was “+++ (+++ indicates binding activity greater than 80%)”; for `C=CC(=O)N1C[C@H](C)N(c2nc(N3CC(N(C)C)C3)nc3c(F)c(-c4c(C)ccc5nn[nH]c45)c(Cl)cc23)C[C@H]1C` [Compound 86, 1-((2R,5S)-4-(6-chloro-2-(3-(dimethylamino)azetidin-1-yl)-8-fluoro-7-(6-methyl-1H-benzo[d][1,2,3]triazol-7-yl)quinazolin-4-yl)-2,5-dimethylpiperazin-1-yl)prop-2-en-1-one], “+ (+ indicates binding activity greater than 0% and up to 50%)”.
